According to publication PMC9200803, “Design, synthesis, and biological evaluation of tetrahydroquinolinones and tetrahydroquinolines with anticancer activity” (Scientific Reports, 2022):

Legend:
[1] = tested on: HCT-116 cells; experiment: MTT cell viability assay, HCT-116; type: cell-based, human; conditions: MTT, 72 h, IC50 ± SD
Procedure: (§1) To evaluate the effects of the newly synthesized tetrahydroquinolin-2(1H)-one derivatives on cell viability, we treated human colon cancer cells HCT-116, human breast cancer cells MCF-7, and human non-small cell lung cancer cells A-549 with different concentrations of the compounds for 72 h. After incubation, the MTT (3-(4,5-dimethylthiazol-2-yl)-2,5-diphenyltetrazolium bromide) assay was performed and the cytotoxic potency of compounds (expressed in IC50) on the cells was determined in comparison to control cells treated with 1% of dimethyl sulfoxide (DMSO) (Table 1). […] We also compared the activity of 20d and 19b to the reference control drug Cisplatin, which is widely used in chemotherapy.
(§2) A-549 (CCL-185) and MCF-7 ([…]) cells were cultured in RPMI-1640 medium, while HCT-116 (CVCL-427), (hMLH1)-deficient (MMR^–) and hMLH1-proficient (MMR^+) RKO cells were cultured in McCoy’s 5A medium. The culture media were supplemented with 10% fetal bovine serum, 2 mM L-glutamine, and antibiotics (penicillin 62.6 µg/ml and streptomycin 40 µg/ml). Cultivation of cell lines was carried out at 37 °C under a humidified atmosphere containing 5% CO2, and the cultures were routinely screened for Mycoplasma contamination. A-549, MCF-7, and HCT-116 cells were obtained from American Type Culture Collection (ATCC), while RKO colon carcinoma cells were a kind gift of Dr Timothy Kinsella (Brown University, USA).
(§3) The viability of cells was determined in response to the newly synthesized compounds using the MTT (Sigma-Aldrich) assay. Briefly, cells were seeded into 96-well plates and allowed to attach overnight. Then, cells were exposed to various concentrations of compounds for 24, 48 or 72 h. Negative controls were treated with the same amount of DMSO solvent (1%). After treatment, the MTT solution (0.4 mg/ml) was added to each well and allowed to react with cells for 2–3 h at 37 °C. Next, the medium was removed, the formazan product formed was dissolved in 100 μl of DMSO, and the absorbance was determined at 540 nm using an ASYS UVM340 microplate reader (Biochrom Ltd.). The IC50 value, which represents the concentration of the compound required to inhibit cell growth by 50% compared to vehicle, was calculated using GraphPad Prism 8 software based on the curves plotting survival against dose averaged from at least three independent experiments.

[2] = tested on: A-549 cells; experiment: MTT cell viability assay, A-549; type: cell-based, human
Procedure: as §1, §2, §3

[3] = tested on: MCF-7 cells; experiment: MTT cell viability assay, MCF-7; type: cell-based, human; conditions: Homo sapiens, MCF7, 72 h, IC50 ± SD
Procedure: as §1, §2, §3

[4] = tested on: HEK293 cells; experiment: MTT cell viability assay, HEK293; type: cell-based, human; conditions: Homo sapiens, HEK293, IC50 ± SD
[5] = tested on: HCT-116 cells; experiment: Colony formation (clonogenic) assay; type: cell-based, human; conditions: HCT-116, 24 h pretreatment, 9 days culture
Procedure: A total of 500 HCT-116 cells/well was seeded into six-well plates. After attachment, cells were pretreated with DMSO (1%) or various concentrations of 20d and 19b for 24 h. Following incubation, the medium was changed, and cells were cultured for 9 days. After culturing, cells were washed with phosphate-buffered saline (PBS), fixed with 100% methanol for 30 min, and then stained with 0.5% crystal violet for 15 min. The plates were air-dried, and visible colonies were counted using ImageJ software. The percentage viability of cells was calculated in comparison to the control.

[6] = tested on: HCT-116 cells; experiment: Cell cycle distribution analysis by flow cytometry (PI staining); type: cell-based, human; conditions: HCT-116, 24 to 72 h, vs vehicle
Procedure: Based on their antiproliferative activity, 20d and 19b were evaluated for their effect on cell cycle phase distribution and DNA content by flow cytometry.
HCT-116 and A-549 cells were seeded into culture plates and allowed to attach overnight. Then, cells were incubated with the investigated compounds for the indicated time points. After incubation, the harvested cells were fixed with ice-cold 75% ethanol and stored overnight at − 20 °C. Next, cells were rehydrated with PBS in ice for 15 min and washed twice in PBS. Finally, cells were stained with […] propidium iodide (PI) and […] RNase A in PBS for 30 min at room temperature. Cell cycle distribution was determined using a Guava easyCyte 8 flow cytometer (Merck Millipore) and FlowJo v10 software.

- IC50 ([1]; Homo sapiens, HCT-116, 72 h): ~13 µM
- IC50 [1]: 13.5 ± 0.2 µM
- IC50 ([2]; Homo sapiens, A549, MTT, 72 h, IC50 ± SD): 15.7 ± 2.56 µM
- IC50 [3]: > 50 µM
- melting point: 183 to 185 °C
Compound: COc1cc(-c2ccccc2)c2c(n1)C(OC(=O)Nc1ccc([N+](=O)[O-])cc1)CCC2 (stereo not shown) [Compound 19b, (2-methoxy-4-phenyl-5,6,7,8-tetrahydroquinolin-8-yl) N-(4-nitrophenyl)carbamate]
- fold lower concentration than Cisplatin suppressing 50% of cell viability ([2]; A-549): 5 fold
- IC50 [4]: > 50 µM
- formation of colonies [5]: effectively inhibited the formation of colonies in a concentration-dependent manner
- increase in the number of cells in the G0/G1 phase [6]: < 14%
- number of cells in the S-phase [6]: substantial decrease
